The data set deals with Liver. Briefly: Intrinsic clearance in human liver microsomes at 2.5 uM assessed per gram of liver. In kind it is ADME, microsome. In general terms: Microsomes from liver hold many membrane-bound enzymes, among them those of drug oxidation.
`COc1cccc(-c2c(S(=O)(=O)c3cccc(F)c3)cnc3c(F)cccc23)c1` had a CLint of 2.6 mL/min/g.
The same measure for `O=S(=O)(c1cc(Cl)cc(Cl)c1)c1cnc2c(F)cccc2c1-c1ccccc1F`: 0.44 mL/min/g.
The figure for `COc1ccc(-c2c(S(=O)(=O)c3cc(F)cc(F)c3)cnc3c(F)cccc23)cc1` is 2.59 mL/min/g; for `O=S(=O)(c1ccc(F)cc1)c1cnc2cc(F)ccc2c1-c1ccc(F)cc1` it is 1.34 mL/min/g; for `COc1ccc(-c2c(S(=O)(=O)c3cccc(C#N)c3)cnc3cc(F)ccc23)cc1` it is 0.92 mL/min/g.
`COc1ccc(-c2c(S(=O)(=O)c3ccc(F)c(F)c3)cnc3c(F)cccc23)cc1` registered a CLint of 2.12 mL/min/g.
The same measure for `O=S(=O)(c1cc(F)cc(F)c1)c1cnc2c(F)cccc2c1-c1ccccc1F`: 0.09 mL/min/g; for `COc1ccc(S(=O)(=O)c2cnc3cc(F)ccc3c2-c2cccc(F)c2)cc1Cl`: 2.08 mL/min/g.
The same measure for `O=S(=O)(c1cc(F)cc(F)c1)c1cnc2cc(F)ccc2c1-c1ccc(Cl)cc1`: 0.03 mL/min/g; for `Cc1ccc(S(=O)(=O)c2cnc3cc(F)ccc3c2-c2ccc(Cl)cc2)cc1C`: 7.88 mL/min/g.
With `COc1cccc(-c2c(S(=O)(=O)c3ccc(C)c(F)c3)cnc3c(F)cccc23)c1`, the CLint was 4.02 mL/min/g.
Turning to `O=S(=O)(c1ccc(F)c(F)c1)c1cnc2cc(F)ccc2c1-c1cccc(F)c1`, the CLint came out at 0.6 mL/min/g.
Take `O=S(=O)(c1cc(F)cc(F)c1)c1cnc2c(F)cccc2c1-c1cccc(F)c1`: the CLint amounted to 1.18 mL/min/g.
In turn, `COc1ccc(-c2c(S(=O)(=O)c3cc(Cl)cc(Cl)c3)cnc3c(F)cccc23)cc1` came in with a CLint of 2.11 mL/min/g.
For the compound `O=S(=O)(c1cccc(F)c1)c1cnc2c(F)cccc2c1-c1cccc(Cl)c1`, the CLint is 0.56 mL/min/g.
The same measure for `COc1cccc(S(=O)(=O)c2cnc3cc(F)ccc3c2-c2cccc(Cl)c2)c1`: 2.97 mL/min/g; for `COc1ccc(-c2c(S(=O)(=O)c3ccc(F)cc3)cnc3cc(F)ccc23)cc1`: 1.77 mL/min/g.
For the compound `O=S(=O)(c1cc(F)cc(F)c1)c1cnc2c(F)cccc2c1-c1cccc(Cl)c1`, the CLint was determined as 0.64 mL/min/g.
The compound `O=S(=O)(c1ccc(F)c(Cl)c1)c1cnc2c(F)cccc2c1-c1ccc(Cl)cc1` showed a CLint of 0.01 mL/min/g.
Turning to `O=S(=O)(c1ccc(F)c(F)c1)c1cnc2c(F)cccc2c1-c1ccccc1F`, the CLint was 1.39 mL/min/g.
`COc1cccc(-c2c(S(=O)(=O)c3cc(F)cc(F)c3)cnc3c(F)cccc23)c1` returned a CLint of 2.76 mL/min/g.
On to `Cc1ccc(S(=O)(=O)c2cnc3c(F)cccc3c2-c2ccc(F)cc2)cc1F`, for which the CLint was found to be 2.75 mL/min/g.
The same measure for `COc1ccc(S(=O)(=O)c2cnc3c(F)cccc3c2-c2cccc(OC)c2)cc1`: 2.87 mL/min/g.
The figure for `COc1ccc(S(=O)(=O)c2cnc3cc(F)ccc3c2-c2ccc(Cl)cc2)cc1` is 1.28 mL/min/g; for `N#Cc1cccc(S(=O)(=O)c2cnc3cc(F)ccc3c2-c2cccc(F)c2)c1` it is 0.78 mL/min/g; for `O=S(=O)(c1ccc(F)cc1)c1cnc2c(F)cccc2c1-c1cccc(F)c1` it is 1.56 mL/min/g.
The figure for `O=S(=O)(c1cccc(F)c1)c1cnc2cc(F)ccc2c1-c1ccc(Cl)cc1` is 0.98 mL/min/g; for `COc1cccc(-c2c(S(=O)(=O)c3ccc(OC)c(Cl)c3)cnc3cc(F)ccc23)c1` it is 1.71 mL/min/g; for `O=S(=O)(c1ccc(F)c(F)c1)c1cnc2c(F)cccc2c1-c1cccc(Cl)c1` it is 1.13 mL/min/g.
The compound `COc1ccc(S(=O)(=O)c2cnc3c(F)cccc3c2-c2cccc(Cl)c2)cc1` showed a CLint of 2.75 mL/min/g.
In turn, `O=S(=O)(c1cc(Cl)cc(Cl)c1)c1cnc2c(F)cccc2c1-c1cccc(Cl)c1` displayed a CLint of 1.2 mL/min/g.
The figure for `O=S(=O)(c1ccc(F)c(Cl)c1)c1cnc2cc(F)ccc2c1-c1ccccc1F` is 1.07 mL/min/g; for `Cc1ccc(S(=O)(=O)c2cnc3c(F)cccc3c2-c2cccc(F)c2)cc1F` it is 3.92 mL/min/g.
The same measure for `Cc1ccc(S(=O)(=O)c2cnc3cc(F)ccc3c2-c2cccc(Cl)c2)cc1F`: 2.13 mL/min/g; for `COc1ccc(-c2c(S(=O)(=O)c3cccc(F)c3)cnc3cc(F)ccc23)cc1`: 1.89 mL/min/g; for `COc1ccc(S(=O)(=O)c2cnc3cc(F)ccc3c2-c2ccc(F)cc2)cc1Cl`: 1.29 mL/min/g.
The figure for `COc1cccc(-c2c(S(=O)(=O)c3cc(Cl)cc(Cl)c3)cnc3cc(F)ccc23)c1` is 1.51 mL/min/g; for `COc1cccc(S(=O)(=O)c2cnc3cc(F)ccc3c2-c2cccc(F)c2)c1` it is 3.36 mL/min/g; for `Cc1ccc(S(=O)(=O)c2cnc3cc(F)ccc3c2-c2ccc(F)cc2)cc1F` it is 2.33 mL/min/g.
Compound `COc1ccc(-c2c(S(=O)(=O)c3ccc(C)c(F)c3)cnc3c(F)cccc23)cc1` had a CLint of 3.27 mL/min/g.
The same measure for `O=S(=O)(c1cccc(F)c1)c1cnc2c(F)cccc2c1-c1ccccc1F`: 0.21 mL/min/g; for `COc1ccc(-c2c(S(=O)(=O)c3ccc(F)cc3)cnc3c(F)cccc23)cc1`: 2.41 mL/min/g.
The compound `COc1ccc(-c2c(S(=O)(=O)c3ccc(F)c(Cl)c3)cnc3cc(F)ccc23)cc1` had a CLint of 1.08 mL/min/g.
The figure for `O=S(=O)(c1cccc(F)c1)c1cnc2cc(F)ccc2c1-c1ccc(F)cc1` is 0.11 mL/min/g.
The same measure for `Cc1ccc(S(=O)(=O)c2cnc3cc(F)ccc3c2-c2cccc(F)c2)cc1F`: 0.41 mL/min/g; for `COc1cccc(-c2c(S(=O)(=O)c3ccc(C)c(C)c3)cnc3cc(F)ccc23)c1`: 8.78 mL/min/g; for `COc1ccc(-c2c(S(=O)(=O)c3ccc(OC)cc3)cnc3cc(F)ccc23)cc1`: 1.18 mL/min/g.
The figure for `O=S(=O)(c1cccc(F)c1)c1cnc2c(F)cccc2c1-c1ccc(Cl)cc1` is 0.62 mL/min/g; for `N#Cc1cccc(S(=O)(=O)c2cnc3c(F)cccc3c2-c2cccc(Cl)c2)c1` it is 1.11 mL/min/g.
`O=S(=O)(c1ccc(F)c(F)c1)c1cnc2cc(F)ccc2c1-c1ccccc1F` returned a CLint of 0.79 mL/min/g.
`COc1ccc(-c2c(S(=O)(=O)c3cc(Cl)cc(Cl)c3)cnc3cc(F)ccc23)cc1` had a CLint of 1 mL/min/g.
As for `O=S(=O)(c1ccc(F)cc1)c1cnc2cc(F)ccc2c1-c1cccc(F)c1`, the CLint came to 0.95 mL/min/g.
In turn, `COc1ccc(S(=O)(=O)c2cnc3cc(F)ccc3c2-c2cccc(F)c2)cc1` returned a CLint of 2.94 mL/min/g.
`Cc1ccc(S(=O)(=O)c2cnc3c(F)cccc3c2-c2cccc(Cl)c2)cc1F` came in with a CLint of 3.18 mL/min/g.
The same measure for `O=S(=O)(c1cccc(F)c1)c1cnc2c(F)cccc2c1-c1cccc(F)c1`: 1.14 mL/min/g.
In turn, `COc1cccc(-c2c(S(=O)(=O)c3cc(Cl)cc(Cl)c3)cnc3c(F)cccc23)c1` yielded a CLint of 2.31 mL/min/g.
With `O=S(=O)(c1cccc(F)c1)c1cnc2cc(F)ccc2c1-c1cccc(F)c1`, the CLint was found to be 0.24 mL/min/g.
The figure for `Cc1ccc(S(=O)(=O)c2cnc3cc(F)ccc3c2-c2cccc(F)c2)cc1C` is 3.71 mL/min/g; for `N#Cc1cccc(S(=O)(=O)c2cnc3cc(F)ccc3c2-c2ccccc2F)c1` it is 1.39 mL/min/g; for `COc1ccc(-c2c(S(=O)(=O)c3ccc(C)c(C)c3)cnc3cc(F)ccc23)cc1` it is 4.13 mL/min/g.
The figure for `N#Cc1cccc(S(=O)(=O)c2cnc3c(F)cccc3c2-c2ccc(Cl)cc2)c1` is 0.08 mL/min/g; for `N#Cc1cccc(S(=O)(=O)c2cnc3c(F)cccc3c2-c2ccc(F)cc2)c1` it is 0.19 mL/min/g; for `COc1cccc(-c2c(S(=O)(=O)c3ccc(F)c(F)c3)cnc3cc(F)ccc23)c1` it is 1.77 mL/min/g.
For the compound `COc1ccc(S(=O)(=O)c2cnc3cc(F)ccc3c2-c2cccc(Cl)c2)cc1Cl`, the CLint was 1.19 mL/min/g.
`O=S(=O)(c1ccc(F)c(Cl)c1)c1cnc2cc(F)ccc2c1-c1cccc(F)c1` returned a CLint of 0.25 mL/min/g.
In the case of `N#Cc1cccc(S(=O)(=O)c2cnc3c(F)cccc3c2-c2ccccc2F)c1`, the CLint was determined as 0.66 mL/min/g.
The figure for `O=S(=O)(c1cc(Cl)cc(Cl)c1)c1cnc2cc(F)ccc2c1-c1ccccc1F` is 0.93 mL/min/g; for `N#Cc1cccc(S(=O)(=O)c2cnc3c(F)cccc3c2-c2cccc(F)c2)c1` it is 0.34 mL/min/g.
The figure for `N#Cc1cccc(S(=O)(=O)c2cnc3cc(F)ccc3c2-c2cccc(Cl)c2)c1` is 0.99 mL/min/g.
The same measure for `COc1ccc(-c2c(S(=O)(=O)c3ccc(OC)cc3)cnc3c(F)cccc23)cc1`: 2.12 mL/min/g.
For `Cc1ccc(S(=O)(=O)c2cnc3cc(F)ccc3c2-c2ccc(F)cc2)cc1C`, the CLint was found to be 9.25 mL/min/g.
`COc1ccc(S(=O)(=O)c2cnc3c(F)cccc3c2-c2cccc(F)c2)cc1` returned a CLint of 3.03 mL/min/g.
Regarding `O=S(=O)(c1cc(Cl)cc(Cl)c1)c1cnc2cc(F)ccc2c1-c1cccc(Cl)c1`, the CLint is 0.93 mL/min/g.
`COc1ccc(-c2c(S(=O)(=O)c3cccc(F)c3)cnc3c(F)cccc23)cc1` showed a CLint of 2.48 mL/min/g.
Take `O=S(=O)(c1ccc(F)c(Cl)c1)c1cnc2cc(F)ccc2c1-c1cccc(Cl)c1`: the CLint came out at 0.66 mL/min/g.
Compound `COc1cccc(-c2c(S(=O)(=O)c3cccc(C#N)c3)cnc3cc(F)ccc23)c1` showed a CLint of 1.83 mL/min/g.
`O=S(=O)(c1cc(F)cc(F)c1)c1cnc2c(F)cccc2c1-c1ccc(Cl)cc1` returned a CLint of 0.73 mL/min/g.
The figure for `O=S(=O)(c1ccc(F)c(Cl)c1)c1cnc2c(F)cccc2c1-c1ccc(F)cc1` is 0.19 mL/min/g.
Regarding `O=S(=O)(c1cc(F)cc(F)c1)c1cnc2cc(F)ccc2c1-c1cccc(Cl)c1`, the CLint came out at 0.22 mL/min/g.
`COc1ccc(-c2c(S(=O)(=O)c3cc(F)cc(F)c3)cnc3cc(F)ccc23)cc1`: the CLint worked out at 1.51 mL/min/g.
The same measure for `COc1ccc(S(=O)(=O)c2cnc3cc(F)ccc3c2-c2ccc(F)cc2)cc1`: 1.71 mL/min/g.
The same measure for `O=S(=O)(c1ccc(F)c(Cl)c1)c1cnc2c(F)cccc2c1-c1cccc(F)c1`: 1.23 mL/min/g; for `Cc1ccc(S(=O)(=O)c2cnc3cc(F)ccc3c2-c2cccc(Cl)c2)cc1C`: 4.01 mL/min/g; for `O=S(=O)(c1cc(Cl)cc(Cl)c1)c1cnc2c(F)cccc2c1-c1ccc(Cl)cc1`: 0.78 mL/min/g.
The figure for `O=S(=O)(c1ccc(F)c(F)c1)c1cnc2c(F)cccc2c1-c1cccc(F)c1` is 1.28 mL/min/g; for `O=S(=O)(c1cc(Cl)cc(Cl)c1)c1cnc2c(F)cccc2c1-c1cccc(F)c1` it is 1.08 mL/min/g; for `COc1ccc(-c2c(S(=O)(=O)c3ccc(F)c(F)c3)cnc3cc(F)ccc23)cc1` it is 1.1 mL/min/g.
Consider `O=S(=O)(c1ccc(F)cc1)c1cnc2c(F)cccc2c1-c1cccc(Cl)c1`, for which the CLint is 1.21 mL/min/g.

For the origin of these results see ChEMBL document CHEMBL4007421, “Discovery and Preclinical Characterization of 3-((4-(4-Chlorophenyl)-7-fluoroquinoline-3-yl)sulfonyl)benzonitrile, a Novel Non-acetylenic Metabotropic Glutamate Receptor 5 (mGluR5) Negative Allosteric Modulator for Psychiatric Indications” (J Med Chem, 2017).
